Reference: patent US20110165277A1, “Biological Materials and Uses Thereof” (priority 2008, published 2011)
Values joined by “and” are separate entries in the source; they are usually repeats but may differ in a detail not shown here. Equal entries are not always repeated.

How the values were obtained:
[1] = Further sandalwood analogues: volatile fatty acid and methane production (Example 7, Table 14); assay type: cell-based
Method: (§1) Further testing of sandalwood analogues was conducted following the protocols described in Examples 3 and 5.

rumen fluid [2] = assay: Methane and volatile fatty acid production by buffered rumen fluid incubated with hay barley mix (Example 1); assay type: cell-based, cow; settings: 500 μg/ml; 16 hours, 39° C.
Method: Thirty ml of a 33% buffered solution of rumen fluid withdrawn from a rumen canulated cow was incubated with 0.3 g of a 50:50 hay barley mix at 39° C. under anaerobic conditions.
(§2) After 16 hours the volume of gas produced and the percentage of methane in the headspace was measured and the resultant fermentation fluid was analysed for volatile fatty acids by HPLC.
Sandalwood oil, and control oils of commercial essential oil mixes or pure oils of eugenol or cinnamaldehyde were added in the amount of 500 μg/ml to the 30 ml buffered solution of rumen fluid prior to incubation. Sandalwood oil was obtained from Cardiff University and Sigma [SAFC (e.g. W30,050-0 lot no. 03722CC-396) and Sandalwood oil manufactured by Fluka (355263/1 lot no. 52706264).]

[3] = Further sandalwood analogues: CH4 per bottle, compound in DMSO or ETOH (Example 7, Table 15); assay type: cell-based; settings: for CH4: single bottles rep a, b, c
Method: as §1

rumen fluid [4] = assay: Methane production by buffered rumen fluid, sandalwood oil and synthetic replacements (Example 4); assay type: cell-based, cow; settings: 5, 50 or 100 or 500 pg/ml; 16 hours
Method: Thirty ml of a 33% buffered solution of rumen fluid withdrawn from a rumen canulated cow was incubated with 0.3 g of a 50:50 hay barley mix at 39° C. under anaerobic conditions
as §2
Sandalwood oil from either Fluka or SAFC and two different batches of Javanol (Givaudan) or a single batch of Santaliff (International Flavors & Fragrances) (both Javanol and Santaliff are artifical Sandalwood replacements) were added in the amount of 5, 50 or 100 or 500 pg/ml to the 30 ml buffered solution of rumen fluid prior to incubation.

| Compound | Acetate ([1]; 5 μg/ml) | Butyrate ([1]; 5 μg/ml) | Methane ([1]; 5 μg/ml) | Propionate ([1]; 5 μg/ml) | TVFA ([1]; 5 μg/ml) | Acetate ([1]; 50 μg/ml) | Butyrate ([1]; 50 μg/ml) | Methane ([1]; 50 μg/ml) | Propionate ([1]; 50 μg/ml) | TVFA ([1]; 50 μg/ml) | Acetate ([1]; 100 μg/ml) | Butyrate ([1]; 100 μg/ml) | Methane ([1]; 100 μg/ml) | Propionate ([1]; 100 μg/ml) | TVFA ([1]; 100 μg/ml) | Acetate ([1]; 500 μg/ml) | Butyrate ([1]; 500 μg/ml) | Methane ([1]; 500 μg/ml) | Propionate ([1]; 500 μg/ml) | TVFA ([1]; 500 μg/ml) | also measured |
| --- | --- | --- | --- | --- | --- | --- | --- | --- | --- | --- | --- | --- | --- | --- | --- | --- | --- | --- | --- | --- | --- |
| CCC(=CCC1CC=C(C)C1(C)C)CO (stereo not drawn) [Bacdanol, 2-ethyl-4-(2,2,3-trimethyl-3-cyclopenten-1-yl)-2-buten-1-ol] | 2037 μmol/g of feed added | 438 μmol/g of feed added | 934 μmol/g of feed added | 444 μmol/g of feed added | 2919 μmol/g of feed added | 2049 μmol/g of feed added | 458 μmol/g of feed added | 1047 μmol/g of feed added | 434 μmol/g of feed added | 2942 μmol/g of feed added | 2419 μmol/g of feed added | 514 μmol/g of feed added | 995 μmol/g of feed added | 515 μmol/g of feed added | 3448 μmol/g of feed added | 2331 μmol/g of feed added | 309 μmol/g of feed added | 942 μmol/g of feed added | 864 μmol/g of feed added | 3503 μmol/g of feed added |  |
| O=CC=Cc1ccccc1 [Cinnamaldehyde] |  |  |  |  |  |  |  |  |  |  |  |  |  |  |  |  |  |  |  |  | Acetate formation (rumen fluid [2]): 2832 μmole/g of feed; Butyrate formation (rumen fluid [2]): 73 μmole/g of feed; Methane formation (rumen fluid [2]): 1471 μmole/g of feed; Propionate formation (rumen fluid [2]): 492 μmole/g of feed; Total volatile fatty acids formation (rumen fluid [2]): 3398 μmole/g of feed |
| CC(C)=CCCC(C)=CC=O [Citral] |  |  |  |  |  |  |  |  |  |  |  |  |  |  |  |  |  |  |  |  | Acetate formation (rumen fluid [2]): 2754 μmole/g of feed; Butyrate formation (rumen fluid [2]): 72 μmole/g of feed; Methane formation (rumen fluid [2]): 1461 μmole/g of feed; Propionate formation (rumen fluid [2]): 534 μmole/g of feed; Total volatile fatty acids formation (rumen fluid [2]): 3361 μmole/g of feed |
| CC1=CCC(C=CC(C)C(C)O)C1(C)C (stereo not drawn) [Ebanol, 3-Methyl-5-(2,2,3-trimethyl-3-cyclopenten-1-yl)-4-penten-2-ol] | 2136 μmol/g of feed added | 488 μmol/g of feed added | 952 μmol/g of feed added | 427 μmol/g of feed added | 3051 μmol/g of feed added | 2129 μmol/g of feed added | 474 μmol/g of feed added | 934 μmol/g of feed added | 436 μmol/g of feed added | 3039 μmol/g of feed added | 2430 μmol/g of feed added | 458 μmol/g of feed added | 833 μmol/g of feed added | 533 μmol/g of feed added | 3421 μmol/g of feed added | 2333 μmol/g of feed added | 332 μmol/g of feed added | 683 μmol/g of feed added | 939 μmol/g of feed added | 3604 μmol/g of feed added |  |
| C=CCc1ccc(O)c(OC)c1 [Eugenol] |  |  |  |  |  |  |  |  |  |  |  |  |  |  |  |  |  |  |  |  | Acetate formation (rumen fluid [2]): 2817 μmole/g of feed; Butyrate formation (rumen fluid [2]): 73 μmole/g of feed; Methane formation (rumen fluid [2]): 1436 μmole/g of feed; Propionate formation (rumen fluid [2]): 590 μmole/g of feed; Total volatile fatty acids formation (rumen fluid [2]): 3479 μmole/g of feed |
| CC1=CCC(CCC(C)C(C)O)C1(C)C (stereo not drawn) [Sandalore, 5-(2,2,3-Trimethyl-3-cyclopentenhyl)-3-methylpentan-2-ol] | 2118 μmol/g of feed added | 487 μmol/g of feed added | 951 μmol/g of feed added | 431 μmol/g of feed added | 3036 μmol/g of feed added | 1972 μmol/g of feed added | 453 μmol/g of feed added | 1086 μmol/g of feed added | 409 μmol/g of feed added | 2834 μmol/g of feed added | 2119 μmol/g of feed added | 432 μmol/g of feed added | 1174 μmol/g of feed added | 471 μmol/g of feed added | 3023 μmol/g of feed added | 2249 μmol/g of feed added | 305 μmol/g of feed added | 902 μmol/g of feed added | 897 μmol/g of feed added | 3451 μmol/g of feed added |  |
| CC1C2CC(CC2C2CCC(O)CC2)C1(C)C (stereo not drawn) [Sandela, 4-(5,5,6-Trimethylbicyclo[2.2.1]hept-2-yl)cyclohexan-1-ol] | 2223 μmol/g of feed added | 482 μmol/g of feed added | 996 μmol/g of feed added | 465 μmol/g of feed added | 3169 μmol/g of feed added | 2235 μmol/g of feed added | 513 μmol/g of feed added | 1052 μmol/g of feed added | 450 μmol/g of feed added | 3198 μmol/g of feed added | 2297 μmol/g of feed added | 515 μmol/g of feed added | 1078 μmol/g of feed added | 477 μmol/g of feed added | 3289 μmol/g of feed added | 2270 μmol/g of feed added | 317 μmol/g of feed added | 928 μmol/g of feed added | 680 μmol/g of feed added | 3267 μmol/g of feed added |  |
| CCC(=CCC1CC=C(C)C1(C)C)CO (stereo not drawn) [Sanjinol, 2-ethyl-4(2,2,3-trimethyl-3-cyclopentenyl)-2-buten-1-ol] | 1978 μmol/g of feed added | 448 μmol/g of feed added | 1107 μmol/g of feed added | 426 μmol/g of feed added | 2852 μmol/g of feed added | 2192 μmol/g of feed added | 466 μmol/g of feed added | 835 μmol/g of feed added | 579 μmol/g of feed added | 3237 μmol/g of feed added | 2359 μmol/g of feed added | 512 μmol/g of feed added | 795 μmol/g of feed added | 697 μmol/g of feed added | 3568 μmol/g of feed added | 1849 μmol/g of feed added | 225 μmol/g of feed added | 741 μmol/g of feed added | 744 μmol/g of feed added | 2818 μmol/g of feed added | CH4 (mean of rep a-c) ([3]; 150 ug/30 ml in 200 ul DMSO): 938.5618 µmol/g; CH4 ([3]; 150 ug/30 ml in 200 ul DMSO): 1107.671 µmol/g and 793.8945 µmol/g and 914.1195 µmol/g; CH4 (mean of rep a-c) ([3]; 150 ug/30 ml in 200 ul ETOH): 1153.269 µmol/g; CH4 ([3]; 150 ug/30 ml in 200 ul ETOH): 1064.879 µmol/g and 1232.288 µmol/g and 1162.641 µmol/g; CH4 (mean of rep a-c) ([3]; 15000 ug/30 ml in 200 ul DMSO): 743.6664 µmol/g; CH4 ([3]; 15000 ug/30 ml in 200 ul DMSO): 615.569 µmol/g and 893.1559 µmol/g and 722.2742 µmol/g; CH4 (mean of rep a-c) ([3]; 15000 ug/30 ml in 200 ul ETOH): 1158.419 µmol/g; CH4 ([3]; 15000 ug/30 ml in 200 ul ETOH): 1063.899 µmol/g and 1351.649 µmol/g and 1059.708 µmol/g |
| CC(=CCC1CC=C(C)C1(C)C)CO (stereo not drawn) [Santaliff, 2-Methyl-4-(2,2,3-trimethyl-3-cyclopenten-1-yl)-2-buten-1-ol] | 2174 μmol/g of feed added | 458 μmol/g of feed added | 1031 μmol/g of feed added | 466 μmol/g of feed added | 3098 μmol/g of feed added | 2142 μmol/g of feed added | 490 μmol/g of feed added | 1052 μmol/g of feed added | 442 μmol/g of feed added | 3074 μmol/g of feed added | 2301 μmol/g of feed added | 462 μmol/g of feed added | 844 μmol/g of feed added | 543 μmol/g of feed added | 3305 μmol/g of feed added | 2101 μmol/g of feed added | 296 μmol/g of feed added | 801 μmol/g of feed added | 741 μmol/g of feed added | 3138 μmol/g of feed added | methane compared to the control experiments (rumen fluid [4]): significantly decreased |
